# Measured values as given in patent US9611232B2, “Oxazolidinone and imidazolidinone compounds” (Hoffmann-La Roche Inc., priority 2012, dated 2017).
# Several values for one entry are separate records, joined by “and”; a condition that tells them apart may be missing. Equal values may be shown once.
# Assays:
# h KCa3.1 = h KCa3.1 (Homo sapiens (Human), UniProt O15554); assay: Electrophysiology patch clamp (PatchXpress); type: cell-based; settings: CHO cells over-expressing h KCa3.1, read-out: IC50 Ephys
# Protocol: Electrophysiology Patch Clamp
# Compounds were tested using a PatchXpress® (Model 7000A, Molecular Devices, Union City Calif.) on CHO cells over-expressing h KCa3.1 at ChanTest Corporation, 14656 Neo Parkway, Cleveland, Ohio.
# KCa3.1 = KCa3.1 (Homo sapiens (Human), UniProt O15554); assay: Thallium influx assay (FLIPR, FluxOR); type: cell-based; settings: CHOK1 cells over-expressing KCa3.1; thallium (3.3 mM)/ionomycin (1 μM) activation
# Protocol: The thallium influx assay was performed with CHOK1 cells over-expressing KCa3.1 obtained from Evotec and maintained in MEM Alpha medium supplemented with 10% fetal bovine serum, 100 U/ml penicillin/[…] streptomycin and 250 μg/ml G418.
# CHOK1 wild type cells were passaged using F12/Ham's medium supplemented with 10% fetal bovine serum, 2 mM glutamine, 100 U/ml penicillin/[…] streptomycin. All cells were cultured in T175 flasks.
# Before the day of the assay, cells were harvested from culture flasks using standard trypsin digestion. Cells were counted and densities adjusted and dispensed into 384-well poly-D-lysine coated plates at 7500 […], assay plates were incubated overnight in CO2 incubator at 37° C.
# The following day, growth media was removed followed by the addition of 25 ul/well of FluxOR™ (Invitrogen) loading dye in a gluconate based assay buffer (135 mM NaGluconate,
# 2.5 mM Kgluconate, 2 mM CaNO3, 1 mM MgNO3, 10 mM HEPES (acid), 5 mM glucose pH adjusted to 7.4). Assay plates were incubated for 1 hour at 37° C. The loading dye was then replaced with gluconate assay buffer containing probenecid.
# Compounds diluted in gluconate buffer were transferred into the assay plates (25 μl/well) followed by incubation for 20 minutes at room temperature. The assay plates were then transferred to a Fluorometric Imaging Plate Reader (FLIPR), a baseline was read for twenty second capture, followed by the addition of 25 μl/well of channel activation solution in gluconate buffer—for KCa3.1 cells thallium (3.3 mM)/ionomycin(1 μM) was used and for the wild type, ionomycin only, then fluorescence was monitored for another 90 seconds.
# [1] = test system: trinitrobenzene sulfonic acid-induced colitis; settings: mice; cited from earlier work
# renal fibrosis = settings: unilateral ureteral obstruction model; cited from earlier work
# [2] = test system: T-cell and macrophage infiltration; settings: in combination with a Kv1.3 blocker; early stages of chronic kidney transplant rejection; cited from earlier work
# [3] = test system: neointimal smooth muscle hyperplasia; settings: rats after carotid balloon angioplasty; cited from earlier work
# MDCK 3-D cyst = MDCK 3-D cyst model of ADPKD; cited from earlier work
# [4] = test system: human endometrial cancer cells; settings: nude mice; cited from earlier work
# human melanoma = settings: severe combined immunodeficiency mice; cited from earlier work
# [5] = test system: allergen challenge-induced airway resistance and hyper-reactivity; settings: sheep model of asthma; cited from earlier work
Structure (SMILES),IC50 (h KCa3.1) [nM],IC50 (KCa3.1),other results
"CCOC(=O)CN1C(=O)O[C@@H](c2cccc(C(F)(F)F)c2)[C@H]1c1ccc(F)cc1 (racemic) [Example 32, [(4RS,5SR)-4-(4-Fluoro-phenyl)-2-oxo-5-(3-trifluoromethyl-phenyl)-oxazolidin-3-yl]-acetic acid ethyl ester]",62,600 nM,–
"NC(=O)CN1C(=O)OC(c2ccc(F)cc2)(c2ccc(F)cc2)[C@@H]1c1ccccc1Cl [Example 19, 2-[(S)-4-(2-Chloro-phenyl)-5,5-bis-(4-fluoro-phenyl)-2-oxo-oxazolidin-3-yl]-acetamide]",63,740 nM,–
Clc1ccccc1C(c1ccccc1)(c1ccccc1)n1cccn1 [TRAM-34],–,–,severity of the symptoms [1]: significantly reduced the severity of the symptoms; renal fibrosis (renal fibrosis): significantly reduced renal fibrosis; T-cell and macrophage infiltration [2]: reduced T-cell and macrophage infiltration; neointimal smooth muscle hyperplasia [3]: significantly reduced neointimal smooth muscle hyperplasia; cyst formation (MDCK 3-D cyst): inhibits cyst formation
"NC(=O)CN1C(=O)OC(c2ccc(F)cc2)(c2ccc(F)cc2)[C@@H]1c1ccc(F)cc1 [Example 7, 2-[(S)-4,5,5-Tris-(4-fluoro-phenyl)-2-oxo-oxazolidin-3-yl]-acetamide]",45,720 nM,–
"NC(=O)CN1C(=O)OC(c2ccc(F)cc2)(c2ccc(F)cc2)[C@@H]1c1ccccc1F [Example 11, 2-[(S)-5,5-Bis-(4-fluoro-phenyl)-4-(2-fluoro-phenyl)-2-oxo-oxazolidin-3-yl]-acetamide]",22,250 nM,–
Clc1ccccc1C(c1ccccc1)(c1ccccc1)n1ccnc1 [Clotrimazole],–,–,growth of tumours [4]: slowed the growth of tumours; number of metastases (human melanoma): reduce the number of metastases
"NC(=O)CN1C(=O)OC(c2ccccc2F)(c2ccccc2F)[C@@H]1c1ccccc1F [Example 13, 2-[(S)-4,5,5-Tris-(2-fluoro-phenyl)-2-oxo-oxazolidin-3-yl]-acetamide]",15,340 nM,–
"NC(=O)CN1C(=O)OC(c2ccc(F)cc2)(c2ccc(F)cc2)[C@@H]1c1ccccc1 [Example 1, (S)-2-(5,5-bis(4-fluorophenyl)-2-oxo-4-phenyloxazolidin-3-yl)acetamide]",58,860 nM,–
CCNC(=O)CN1C(=O)O[C@@H](c2cccc(C(F)(F)F)c2)[C@H]1c1ccc(F)cc1 (racemic) [Example 37],–,4900 nM,–
"NC(=O)CN1C(=O)OC(c2ccc(F)cc2)(c2ccc(F)cc2)[C@@H]1c1ccc(F)cc1F [Example 5, 2-[(S)-4-(2,4-Difluoro-phenyl)-5,5-bis-(4-fluoro-phenyl)-2-oxo-oxazolidin-3-yl]-acetamide]",–,660 nM and 1140 nM,–
"CCOC(=O)CN1C(=O)OC(c2ccc(F)cc2)(c2ccc(F)cc2)[C@@H]1c1ccccc1F [Example 10, [5,5-Bis-(4-fluoro-phenyl)-4-(2-fluoro-phenyl)-2-oxo-oxazolidin-3-yl]-acetic acid ethyl ester]",–,1900 nM,–
"CCOC(=O)CN1C(=O)OC(c2ccc(F)cc2)(c2ccc(F)cc2)[C@@H]1C(C)(C)C [Example 35, [(S)-4-tert-Butyl-5,5-bis-(4-fluoro-phenyl)-2-oxo-oxazolidin-3-yl]-acetic acid ethyl ester]",–,450 nM,–
"NC(=O)CN1C(=O)OC(c2ccc(F)cc2)(c2ccc(F)cc2)C1c1ccccn1 (stereo not drawn) [Example 30, 2-(5,5-bis(4-fluorophenyl)-2-oxo-4-(pyridin-2-yl)oxazolidin-3-yl)acetamide]",–,17500 nM,–
"NC(=O)CN1C(=O)OC(c2cccc(F)c2)(c2cccc(F)c2)[C@@H]1c1ccccc1F [Example 15, 2-[(S)-5,5-Bis-(3-fluoro-phenyl)-4-(2-fluoro-phenyl)-2-oxo-oxazolidin-3-yl]-acetamide]",42,700 nM,–
"NC(=O)CN1C(=O)NC(c2ccc(F)cc2)(c2ccc(F)cc2)[C@@H]1c1ccccc1 [Example 18, (S)-2-(4,4-bis(4-fluorophenyl)-2-oxo-5-phenylimidazolidin-1-yl)acetamide]",–,3700 nM,–
NC(=O)C(c1ccccc1)(c1ccc(F)cc1)c1ccc(F)cc1 [Senicapoc],–,–,allergen challenge-induced airway resistance and hyper-reactivity [5]: reduce allergen challenge-induced airway resistance and hyper-reactivity
"O=C1OC(c2ccc(F)cc2)(c2ccc(F)cc2)[C@H](c2ccccc2F)N1Cc1nnc[nH]1 [Example 25, (S)-3-((4H-1,2,4-triazol-3-yl)methyl)-4-(2-fluorophenyl)-5,5-bis(4-fluorophenyl)oxazolidin-2-one]",–,10000 nM,–
"CCOC(=O)CN1C(=O)OC(c2cccc(F)c2)(c2cccc(F)c2)[C@@H]1c1ccccc1F [Example 14, [(S)-5,5-Bis-(3-fluoro-phenyl)-4-(2-fluoro-phenyl)-2-oxo-oxazolidin-3-yl]-acetic acid ethyl ester]",–,3600 nM,–
"CCOC(=O)CN1C(=O)OC(c2ccc(F)cc2)(c2ccc(F)cc2)C1c1cccnc1 (stereo not drawn) [Example 26, Ethyl 2-(5,5-bis(4-fluorophenyl)-2-oxo-4-(pyridin-3-yl)oxazolidin-3-yl)acetate]",–,9200 nM,–
"N#CCN1C(=O)OC(c2ccc(F)cc2)(c2ccc(F)cc2)[C@@H]1c1ccccc1F [Example 24, [(S)-5,5-Bis-(4-fluoro-phenyl)-4-(2-fluoro-phenyl)-2-oxo-oxazolidin-3-yl]-acetonitrile]",–,1480 nM,–
"COC(=O)CN1C(=O)OC(c2ccc(F)cc2)(c2ccc(F)cc2)[C@@H]1c1ccccc1F [Example 21, (S)-methyl 2-(4-(2-fluorophenyl)-5,5-bis(4-fluorophenyl)-2-oxooxazolidin-3-yl)acetate]",–,650 nM,–
"NC(=O)CN1C(=O)OC(c2ccccc2)(c2ccccc2)[C@@H]1c1ccccc1F [Example 17, 2-[(S)-4-(2-Fluoro-phenyl)-2-oxo-5,5-diphenyl-oxazolidin-3-yl]-acetamide]",15,880 nM,–
Cc1coc(CN2C(=O)O[C@@H](c3cccc(C(F)(F)F)c3)[C@H]2c2ccc(F)cc2)n1 (racemic) [Example 40],–,6900 nM,–
"NC(=O)CN1C(=O)OC(c2ccc(F)cc2)(c2ccc(F)cc2)C1c1cccnc1 (stereo not drawn) [Example 27, 2-(5,5-bis(4-fluorophenyl)-2-oxo-4-(pyridin-3-yl)oxazolidin-3-yl)acetamide]",–,6700 nM,–
"Cc1ccccc1[C@@H]1N(CC(N)=O)C(=O)OC1(c1ccc(F)cc1)c1ccc(F)cc1 [Example 20, 2-[(S)-5,5-Bis-(4-fluoro-phenyl)-2-oxo-4-o-tolyl-oxazolidin-3-yl]-acetamide]",–,2200 nM,–
N#CCN1C(=O)O[C@@H](c2cccc(C(F)(F)F)c2)[C@H]1c1ccc(F)cc1 (racemic) [Example 38],–,1600 nM,–
